System: patients with rheumatoid arthritis
Test: Phase II clinical study in rheumatoid arthritis: effectiveness (symptoms, physical examination, comprehensive evaluation)
Type: in vivo, human
Design: ESR Reduced to norm., % of cases / CRP Reduced to Norm., % of cases / RF Reduced to norm., % of cases: concentration or dose not given beside the values
Description: It was a multiple-centered, randomized, parallel, positive controlled Phrase II clinical study.
All clinical studies except the above mentioned 120 cases were conducted in a single-blind condition.
1) Age 18˜65, male or female who agreed to the investigational treatment for 12 weeks to 6 months. History of rheumatoid arthritis was within 3 years.
2) Documented Rheumatoid Arthritis based on a diagnostic criteria of 1987 Revised ARA Criteria for the Classification of Rheumatoid Arthritis
3) Diagnosis of a typical active stage of RA: A patient is said to be on an active stage of RA if he or she has satisfied at least 4 of the following 5 items.
2) Patient who quitted the treatment for the ineffectiveness 7 days after the start of administration was included in the efficacy analysis. Patient who quitted the treatment for the side effects was not included in the efficacy analysis but the safety analyses.
1) The placebo run-in period: Seven days before administration, the selected patients stopped using NSAIDs and took a placebo instead.
4) For the double-blinded study, patients in both groups would be given capsules and tablets in same shapes, odors and amount. Placebo of capsule or tablet were included. Neither doctors nor patients can tell the group of treatment from the other.
5) No analgesics, anti-inflammation drugs, immune regulatory agents or muscle relaxants were allowed during the period of study. Acetaminophen could be used when necessary. If a physical therapy was started before enrollment, it was allowed to be continued, yet, it should be taken all the way during the period of clinical study.
1) Pain at rest: patients were asked to scale the degree of pain with a ruler [drawing 1]
2) Morning stiffness: Patients were requested to make notes on duration of their morning joint stiffness, a time span from its appearance to recovery in minutes every morning. The doctors should evaluate their record sheets by questioning them. For example “Do you fell stiff in any of your joints? (today, these 2 days)” When get a “yes” in answer, then “when did you get up today?” and “when does the stiffness be gone?”
3) Swelling of joints: Take count of the index of joint swelling by summing up the degree number of each joint.
0=normal; 1=swelling soft tissues (synovium) without hydrarthrus; 2=swelling soft tissues (synovium) with hydrarthrus.
4) Tenderness of joints: Take count of the index of joint tenderness by summing up the degree number of each joint:
5) Grip strength: Fold the arm belt of a sphygmomanometer twice and seal it in a small cloth bag suitable for a hand to hold. Aerates the belt in pressure of 20 mm Hg. Patients were asked to grip the bag with their not braced left and right hand, the grip strength is the average pressures in mm Hg for three times.
6) Time consumed for a 15 meters' walk (Seconds): Time started from a calm standing to the final of 15 meters. The average of three times.
7) General joint function (criteria of ARA):
8) Self-scoring and physician's grading on disease conditions: Both patients and doctors were required to submit their score sheet every time on follow-up survey. The scoring was made upon following criteria:
9) Patient's general condition: condition on the physical strength, sleep and appetite.
No effect: less than 30% improvement in symptoms and physical signs.
Improved: About 50% improvement in symptoms and physical signs (including general conditions in physical strength, sleep and appetite).

## CN(Cc1cnc2nc(N)nc(N)c2n1)c1ccc(C(=O)N[C@@H](CCC(=O)O)C(=O)O)cc1 [MTX, Methotrexate]
Double blinded, 12 weeks
  MR Disappeared, cases: 15
  NSJ 50% reduced, % of cases: 56.7%
  NSJ 50% reduced, cases: 34
  NSJ Disappeared, % of cases: 26.7%
  NSJ Disappeared, cases: 16
  RF 2 dilutions lower, % of cases: 36.7%
  RF 2 dilutions lower, cases: 22
  RF Reduced to norm., cases: 0
Overall group, 4 weeks
  AGS 50% increased, % of cases: 7.5%
  AGS 50% increased, cases: 19
  CRP 50% reduced, % of cases: 13.4%
  CRP 50% reduced, cases: 19
  CRP Reduced to Norm., % of cases: 4.9%
  CRP Reduced to Norm., cases: 7
  ESR 50% reduced, % of cases: 41.6%
  ESR 50% reduced, cases: 59
  ESR Reduced to norm., % of cases: 15.5%
  ESR Reduced to norm., cases: 22
  ITJ 50% reduced, % of cases: 19.0%
  ITJ 50% reduced, cases: 27
  ITJ Disappeared, % of cases: 2.8%
  ITJ Disappeared, cases: 4
  MR 50% reduced, % of cases: 45.8%
  MR 50% reduced, cases: 65
  MR Disappeared, % of cases: 9.8%
  MR Disappeared, cases: 14
  NSJ 50% reduced, % of cases: 48.6%
  NSJ 50% reduced, cases: 69
  NSJ Disappeared, % of cases: 10.6%
  NSJ Disappeared, cases: 15
  RF 2 dilutions lower, % of cases: 49.3%
  RF 2 dilutions lower, cases: 70
  RF Reduced to norm., % of cases: 4.9%
  RF Reduced to norm., cases: 7
Overall group, 8 weeks
  AGS 50% increased, % of cases: 16.7%
  AGS 50% increased, cases: 23
  CRP 50% reduced, % of cases: 17.6%
  CRP 50% reduced, cases: 25
  CRP Reduced to Norm., % of cases: 12.7%
  CRP Reduced to Norm., cases: 18
  ESR 50% reduced, cases: 80
  ESR Reduced to norm., % of cases: 18.3%
  ESR Reduced to norm., cases: 26
  ITJ 50% reduced, % of cases: 34.5%
  ITJ 50% reduced, cases: 49
  ITJ Disappeared, % of cases: 3.5%
  ITJ Disappeared, cases: 5
  MR 50% reduced, % of cases: 52.1%
  MR 50% reduced, cases: 74
  MR Disappeared, % of cases: 19.7%
  MR Disappeared, cases: 28
  NSJ 50% reduced, % of cases: 51.4%
  NSJ 50% reduced, cases: 73
  NSJ Disappeared, % of cases: 16.9%
  NSJ Disappeared, cases: 24
  RF 2 dilutions lower, % of cases: 59.9%
  RF 2 dilutions lower, cases: 85
  RF Reduced to norm., % of cases: 9.2%
  RF Reduced to norm., cases: 13
Overall group, 12 weeks
  AGS 50% increased, % of cases: 29.5%
  AGS 50% increased, cases: 42
  CRP 50% reduced, % of cases: 23.2%
  CRP 50% reduced, cases: 33
  CRP Reduced to Norm., % of cases: 17.6%
  CRP Reduced to Norm., cases: 25
  ESR 50% reduced, cases: 76
  ESR Reduced to norm., % of cases: 21.8%
  ESR Reduced to norm., cases: 31
  ITJ 50% reduced, % of cases: 50.7%
  ITJ 50% reduced, cases: 72

— patent publication US20030232102A1, “Total glycosides of paeony, method to prepare the same and uses thereof” (priority 2001, published 2003)
